This note sets out measurements from publication doi:10.1101/2025.08.06.668955, “High-Affinity, Structure-Validated and Selective Macrocyclic Peptide Tools for Chemical Biology Studies of Huntingtin” (bioRxiv, 2025).

Where a SMILES comes first, the peptide text is derived from it. Bridges are numbered along the chain shown (N, C = ends).

Experiment [1] has as its system HAP40. Briefly: Macrocycle precipitation (MP), co-purification of HAP40, LC-MS/MS. The experiment is classed as binding, human. The settings on record: HEK293T lysate versus HTT CRISPR knockout line.
For experiment [2], the target named is T1, HTTQ54 (Homo sapiens, UniProt P42858, INS38QQQQQQQQQQQQQQQQQQQQQQQQQQQQQQQQQ).
T1 construct: FLAG; made in house; host or cells: Sf9 insect cells (baculovirus)
Briefly: Thermal shift assay (DSF), HTTQ54. The settings on record: SYPRO Orange, 0.25 mg/mL protein, macrocycle up to 10 μM, 2.5% DMSO, n=3. The format is binding. The protocol:
(§1) In an Axygen® 384-well PCR microplate (REF# PCR-384-LC480-W-NF, Corning), samples were mixed to yield a final concentration of 0.25 mg/mL Q54 or Q23/HAP40, a 5-pt 2-fold serial dilution of each macrocycle (top concentration of 10 μM, 2.5% DMSO), and 5X SYPRO™ Orange (CAT# S6650, Thermo Fisher Scientific) in buffer (20 mM HEPES pH 7.4, 150 mM NaCl, 1 mM TCEP, 0.005% Tween-20). Differential Scanning Fluorimetry (DSF) was performed using a LightCycler® 480 (Roche LifeSciences) set to a 4 °C/min temperature ramp (20–95 °C) and fluorescence detection at 580 nm. Melting temperatures (Tm) were obtained from the minima of the negative derivative of each curve. The propagated error of the thermal shift (ΔTm) was calculated from the standard deviation of each Tm mean (n=3). To ensure a maximally macrocycle-bound fraction (KD ~10 nM; ~100% bound) at 0.25 mg/mL HTT or HTT-HAP40 (~0.7 μM), the upper limit of macrocycle tested was 10 μM.
(§2) 98 Supplementary Figure. 10. Thermal shift (ΔTm) induced by macrocycle binding. Melting
(§3) 99 temperature of HTTQ54 (left) with HL5 or HL2 minus HTTQ54 with DMSO (46.5 °C), and (right)
(§4) 100 HTTQ23-HAP40 with HD4, HL2, HL5, HHD2, HHD3, or HHL1 minus HTTQ23-HAP40 with DMSO
(§5) 101 (51.0 °C). ΔTm significance was determined using an unpaired t-test with Welch correction,
(§6) 102 comparing to the mean Tm of Q54 or Q23-HAP40 with DMSO; *P < 0.05, **P < 0.01, ***P <
103 0.001. […]

For experiment [3], the target named is T2, HTTQ23-HAP40 (Homo sapiens, UniProt P23610+P42858, INS38QQ).
T2 construct: Full-length wildtype HTT with a polyQ tract of 23 glutamines; FLAG; made in house; host or cells: Sf9 insect cells (baculovirus)
Briefly: Thermal shift assay (DSF), HTTQ23-HAP40. The format is binding. The settings on record: SYPRO Orange, 0.25 mg/mL protein, macrocycle up to 10 μM, 2.5% DMSO, n=3. The method, then: as §1, §2, §3, §4, §5, §6
103 0.001. The summary table reports the ΔTm and exact P value at the highest concentration tested
(1 picture or pasted object on this page, not shown here)

T1 sequence (P42858 with tags, fused parts or gaps with the stated changes): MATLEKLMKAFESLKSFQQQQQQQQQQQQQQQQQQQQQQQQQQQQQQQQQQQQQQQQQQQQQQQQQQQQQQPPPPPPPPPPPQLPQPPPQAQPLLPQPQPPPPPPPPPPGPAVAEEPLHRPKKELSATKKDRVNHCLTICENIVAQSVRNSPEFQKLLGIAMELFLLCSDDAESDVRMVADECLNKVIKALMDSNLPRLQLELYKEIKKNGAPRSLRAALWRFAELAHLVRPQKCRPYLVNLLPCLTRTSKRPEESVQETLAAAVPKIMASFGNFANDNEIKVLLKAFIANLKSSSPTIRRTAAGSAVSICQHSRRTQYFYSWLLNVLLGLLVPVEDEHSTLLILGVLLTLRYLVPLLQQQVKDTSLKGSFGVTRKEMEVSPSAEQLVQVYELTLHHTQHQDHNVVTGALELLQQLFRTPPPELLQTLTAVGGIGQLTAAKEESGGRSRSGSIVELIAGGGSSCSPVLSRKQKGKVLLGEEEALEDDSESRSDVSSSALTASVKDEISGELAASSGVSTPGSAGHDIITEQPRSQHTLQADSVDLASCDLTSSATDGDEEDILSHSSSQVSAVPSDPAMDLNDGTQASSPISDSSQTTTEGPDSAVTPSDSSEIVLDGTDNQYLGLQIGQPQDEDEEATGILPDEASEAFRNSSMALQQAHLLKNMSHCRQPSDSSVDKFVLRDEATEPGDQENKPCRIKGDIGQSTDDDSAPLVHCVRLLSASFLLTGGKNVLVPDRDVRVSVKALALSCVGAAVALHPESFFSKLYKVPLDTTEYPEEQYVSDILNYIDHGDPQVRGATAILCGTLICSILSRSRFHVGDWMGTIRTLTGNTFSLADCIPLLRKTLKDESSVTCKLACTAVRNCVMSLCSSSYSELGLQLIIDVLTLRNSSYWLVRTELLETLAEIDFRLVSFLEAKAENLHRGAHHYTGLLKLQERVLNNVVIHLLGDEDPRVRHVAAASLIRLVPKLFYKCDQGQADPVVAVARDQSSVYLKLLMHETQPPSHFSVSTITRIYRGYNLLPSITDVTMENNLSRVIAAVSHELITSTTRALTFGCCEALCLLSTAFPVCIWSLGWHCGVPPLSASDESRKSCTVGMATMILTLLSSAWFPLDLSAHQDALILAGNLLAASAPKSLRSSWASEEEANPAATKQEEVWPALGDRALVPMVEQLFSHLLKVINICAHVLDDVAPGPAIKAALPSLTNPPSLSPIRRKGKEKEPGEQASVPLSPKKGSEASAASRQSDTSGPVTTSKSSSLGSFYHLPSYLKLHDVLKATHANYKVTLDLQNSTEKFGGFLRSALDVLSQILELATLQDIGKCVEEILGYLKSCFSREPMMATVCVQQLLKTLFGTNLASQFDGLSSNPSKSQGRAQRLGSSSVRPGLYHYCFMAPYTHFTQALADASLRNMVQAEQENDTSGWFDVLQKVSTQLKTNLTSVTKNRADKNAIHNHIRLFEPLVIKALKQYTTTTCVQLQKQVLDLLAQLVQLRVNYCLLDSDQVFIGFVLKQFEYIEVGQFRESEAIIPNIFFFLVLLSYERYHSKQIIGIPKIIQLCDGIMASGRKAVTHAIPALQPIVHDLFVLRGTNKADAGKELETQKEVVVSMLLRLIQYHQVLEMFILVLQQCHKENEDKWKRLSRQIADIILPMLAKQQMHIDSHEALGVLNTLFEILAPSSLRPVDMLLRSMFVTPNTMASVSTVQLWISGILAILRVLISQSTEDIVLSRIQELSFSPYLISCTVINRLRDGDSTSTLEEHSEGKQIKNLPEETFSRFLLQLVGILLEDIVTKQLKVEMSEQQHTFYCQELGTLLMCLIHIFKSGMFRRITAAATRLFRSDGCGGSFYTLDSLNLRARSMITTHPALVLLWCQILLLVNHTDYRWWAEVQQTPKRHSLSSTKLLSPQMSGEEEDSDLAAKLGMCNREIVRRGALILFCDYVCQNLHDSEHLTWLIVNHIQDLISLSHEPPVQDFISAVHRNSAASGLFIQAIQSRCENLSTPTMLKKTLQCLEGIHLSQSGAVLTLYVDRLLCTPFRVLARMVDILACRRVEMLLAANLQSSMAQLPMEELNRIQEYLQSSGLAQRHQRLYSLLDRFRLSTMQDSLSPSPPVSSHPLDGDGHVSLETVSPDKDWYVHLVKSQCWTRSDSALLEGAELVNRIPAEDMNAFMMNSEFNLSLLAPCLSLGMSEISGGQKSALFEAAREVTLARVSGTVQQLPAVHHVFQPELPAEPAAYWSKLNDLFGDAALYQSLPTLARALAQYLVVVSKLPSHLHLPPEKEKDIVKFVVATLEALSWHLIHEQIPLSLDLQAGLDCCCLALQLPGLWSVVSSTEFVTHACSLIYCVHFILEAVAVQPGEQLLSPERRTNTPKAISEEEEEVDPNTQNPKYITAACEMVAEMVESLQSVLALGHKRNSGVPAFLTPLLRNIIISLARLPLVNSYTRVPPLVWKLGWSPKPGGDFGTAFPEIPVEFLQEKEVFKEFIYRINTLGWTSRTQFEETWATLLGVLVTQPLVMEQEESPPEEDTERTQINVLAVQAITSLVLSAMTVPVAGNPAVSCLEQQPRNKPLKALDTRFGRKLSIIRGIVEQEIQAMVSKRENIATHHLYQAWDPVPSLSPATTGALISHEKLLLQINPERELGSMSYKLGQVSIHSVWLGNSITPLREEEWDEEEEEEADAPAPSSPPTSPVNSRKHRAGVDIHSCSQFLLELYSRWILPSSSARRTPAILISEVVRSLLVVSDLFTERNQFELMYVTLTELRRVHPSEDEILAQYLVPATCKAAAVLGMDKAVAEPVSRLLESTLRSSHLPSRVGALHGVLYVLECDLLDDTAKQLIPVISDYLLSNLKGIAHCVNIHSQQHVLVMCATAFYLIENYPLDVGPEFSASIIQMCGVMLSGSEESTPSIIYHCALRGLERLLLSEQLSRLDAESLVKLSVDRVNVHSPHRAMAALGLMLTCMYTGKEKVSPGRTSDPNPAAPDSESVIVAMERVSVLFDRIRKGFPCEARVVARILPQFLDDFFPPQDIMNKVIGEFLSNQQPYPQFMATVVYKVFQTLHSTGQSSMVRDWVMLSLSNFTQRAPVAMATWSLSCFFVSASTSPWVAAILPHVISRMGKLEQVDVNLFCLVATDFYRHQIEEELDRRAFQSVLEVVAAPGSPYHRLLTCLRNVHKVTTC

In the case of `CC(C)C[C@@H]1NC(=O)[C@H](Cc2ccc(O)cc2)NC(=O)[C@H](CCCNC(=N)N)NC(=O)[C@H](C)NC(=O)[C@H]([C@@H](C)O)NC(=O)[C@H](Cc2ccc(O)cc2)NC(=O)CSC[C@@H](C(N)=O)NC(=O)[C@H](CCCCN)NC(=O)[C@H](Cc2ccc(O)cc2)NC(=O)[C@H](Cc2c[nH]cn2)NC(=O)[C@H](CC(C)C)NC(=O)[C@H]([C@@H](C)O)NC(=O)CNC(=O)[C@H](CC(C)C)NC(=O)[C@H]([C@@H](C)O)NC1=O` [HL2] ({CH2CO}-YTARYLTLGTLHYKC-NH2; thioether N-15; C-terminus assumed), in experiment [1], the “Enrichment of HAP40 in macrocycle pulldowns” value is “consistently enriched”. In experiment [2], the “Thermal shift (ΔTm) of HTTQ54 induced by macrocycle” value is “No significant thermal effects”. Moreover, the “Thermal shift (ΔTm) of HTTQ23-HAP40 induced by macrocycle” value in experiment [3] is reported as “No significant thermal effects”.
